Reference: patent US12077503B2, “Substituted cyclic amides and their use as herbicides” (FMC CORPORATION, priority 2015, dated 2024)
Where two headings read alike, the source gives them in different places.

Key:
Experiment in all cases: Test A preemergence
Assay type in all cases: in vivo
[1] = test system: ragweed (common ragweed, Ambrosia elatior); details: Ambrosia artemisiifolia, pre-emergence, 240 h; for pest or weed control at 125 g/ha: 125 g ai/ha; for pest or weed control at 500 g/ha: 500 g ai/ha
How it was run: (§1)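 Visual injury scores from 0, no effect, to 100, complete control, were assigned versus untreated controls roughly 10 d after treatment in the greenhouse. Test chemicals, formulated with surfactant in a non-phytotoxic solvent, were applied to planted seeds as a preemergence soil spray or postemergence to one- to two-leaf plants 2 to 10 cm tall, in loam–sand soil.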

[2] = test system: giant foxtail (Setaria faberii); details: Setaria faberi, pre-emergence, 240 h; for pest or weed control at 125 g/ha: 125 g ai/ha; for pest or weed control at 500 g/ha: 500 g ai/ha
How it was run: as §1

Kochia (Kochia scoparia) = details: Bassia scoparia, pre-emergence, 240 h; for pest or weed control at 125 g/ha: 125 g ai/ha; for pest or weed control at 500 g/ha: 500 g ai/ha
How it was run: as §1

[3] = test system: pigweed (Amaranthus retroflexus); details: Amaranthus retroflexus, pre-emergence, 240 h; for pest or weed control at 125 g/ha: 125 g ai/ha; for pest or weed control at 500 g/ha: 500 g ai/ha
[4] = test system: barnyardgrass (Echinochloa crus-galli); details: Echinochloa crus-galli, pre-emergence, 240 h; for pest or weed control at 125 g/ha: 125 g ai/ha; for pest or weed control at 500 g/ha: 500 g ai/ha
How it was run: as §1

[5] = test system: ryegrass, Italian (Italian ryegrass, Lolium multiflorum); details: Lolium multiflorum, pre-emergence, 240 h; for pest or weed control at 125 g/ha: 125 g ai/ha; for pest or weed control at 500 g/ha: 500 g ai/ha
How it was run: as §1

[6] = preemergence, visual rating after approx. 10 d, 0 to 100 scale where 0 is no effect and 100 is complete control, read-out: Plant response rating, Ragweed
[7] = preemergence, visual rating after approx. 10 d, 0 to 100 scale where 0 is no effect and 100 is complete control, read-out: Plant response rating, Foxtail, Giant
[8] = preemergence, visual rating after approx. 10 d, 0 to 100 scale where 0 is no effect and 100 is complete control, read-out: Plant response rating, Kochia
[9] = preemergence, visual rating after approx. 10 d, 0 to 100 scale where 0 is no effect and 100 is complete control, read-out: Plant response rating, Pigweed
[10] = preemergence, visual rating after approx. 10 d, 0 to 100 scale where 0 is no effect and 100 is complete control, read-out: Plant response rating, Barnyardgrass
[11] = preemergence, visual rating after approx. 10 d, 0 to 100 scale where 0 is no effect and 100 is complete control, read-out: Plant response rating, Ryegrass, Italian
[12] = preemergence, 0 to 100 scale where 0 is no effect and 100 is complete control, read-out: Ragweed plant response rating
[13] = preemergence, 0 to 100 scale where 0 is no effect and 100 is complete control, read-out: Foxtail, Giant plant response rating
[14] = preemergence, 0 to 100 scale where 0 is no effect and 100 is complete control, read-out: Kochia plant response rating
[15] = preemergence, 0 to 100 scale where 0 is no effect and 100 is complete control, read-out: Pigweed plant response rating
[16] = preemergence, 0 to 100 scale, 0 = no effect, 100 = complete control, read-out: Plant response rating, Ragweed
[17] = preemergence, 0 to 100 scale, 0 = no effect, 100 = complete control, read-out: Plant response rating, Foxtail, Giant
[18] = preemergence, 0 to 100 scale, 0 = no effect, 100 = complete control, read-out: Plant response rating, Kochia
[19] = preemergence, 0 to 100 scale, 0 = no effect, 100 = complete control, read-out: Plant response rating, Pigweed
[20] = preemergence, 0 to 100 scale, 0 = no effect, 100 = complete control, read-out: Plant response rating, Barnyardgrass

SMILES | pest or weed control at 125 g/ha [1, 6] [%] | pest or weed control at 125 g/ha [2, 7] [%] | pest or weed control at 125 g/ha (Kochia (Kochia scoparia); [8]) [%] | pest or weed control at 125 g/ha [3, 9] [%] | pest or weed control at 125 g/ha [4, 10] [%] | pest or weed control at 125 g/ha [5, 11] [%] | pest or weed control at 500 g/ha [1, 16] [%] | pest or weed control at 500 g/ha [2, 17] [%] | pest or weed control at 500 g/ha [3, 19] [%] | pest or weed control at 500 g/ha [4, 20] [%] | also measured
CN1C[C@H](c2ccc(OC(F)F)cc2)[C@@H](C(=O)Nc2ccccc2S(C)(=O)=O)C1=O [Compound 788] | 80 | 90 | 80 | 80 | 90 | 0 |  |  |  |  | pest or weed control at 500 g/ha ([1]; Preemergence, visual injury vs untreated controls after approximately 10 d, read-out: Ragweed plant response rating (0 to 100 scale where 0 is no effect and 100 is complete control)): 90%; pest or weed control at 500 g/ha ([2]; Preemergence, visual injury vs untreated controls after approximately 10 d, read-out: Foxtail, Giant plant response rating (0 to 100 scale where 0 is no effect and 100 is complete control)): 100%; pest or weed control at 500 g/ha (Kochia (Kochia scoparia); Preemergence, visual injury vs untreated controls after approximately 10 d, read-out: Kochia plant response rating (0 to 100 scale where 0 is no effect and 100 is complete control)): 80%; pest or weed control at 500 g/ha ([3]; Preemergence, visual injury vs untreated controls after approximately 10 d, read-out: Pigweed plant response rating (0 to 100 scale where 0 is no effect and 100 is complete control)): 90%; pest or weed control at 500 g/ha ([4]; Preemergence, visual injury vs untreated controls after approximately 10 d, read-out: Barnyardgrass plant response rating (0 to 100 scale where 0 is no effect and 100 is complete control)): 90%; pest or weed control at 500 g/ha ([5]; Preemergence, visual injury vs untreated controls after approximately 10 d, read-out: Ryegrass, Italian plant response rating (0 to 100 scale where 0 is no effect and 100 is complete control)): 40%
CN1C[C@H](c2csc3ccccc23)[C@@H](C(=O)Nc2ccccc2F)C1=O [Compound 1114] |  |  |  |  |  |  |  |  |  |  | pest or weed control at 125 g/ha ([1]; preemergence, 0 to 100 scale where 0 is no effect and 100 is complete control, approx. 10 d, read-out: Ragweed plant response rating): 0%; pest or weed control at 500 g/ha [1, 12]: 0%; pest or weed control at 125 g/ha ([2]; preemergence, 0 to 100 scale where 0 is no effect and 100 is complete control, approx. 10 d, read-out: Foxtail, Giant plant response rating): 90%; pest or weed control at 500 g/ha [2, 13]: 90%; pest or weed control at 500 g/ha (Kochia (Kochia scoparia); [14]): 60%; pest or weed control at 125 g/ha ([3]; preemergence, 0 to 100 scale where 0 is no effect and 100 is complete control, approx. 10 d, read-out: Pigweed plant response rating): 0%; pest or weed control at 500 g/ha [3, 15]: 0%; pest or weed control at 125 g/ha ([4]; preemergence, 0 to 100 scale where 0 is no effect and 100 is complete control, approx. 10 d, read-out: Barnyardgrass plant response rating): 90%; pest or weed control at 500 g/ha ([4]; preemergence, visual injury rating about 10 d after treatment, 0 to 100 scale (0 no effect, 100 complete control), read-out: Barnyardgrass plant response rating): 90%; pest or weed control at 125 g/ha ([5]; preemergence, 0 to 100 scale where 0 is no effect and 100 is complete control, approx. 10 d, read-out: Ryegrass, Italian plant response rating): 0%; pest or weed control at 500 g/ha ([5]; preemergence, 0 to 100 scale where 0 is no effect and 100 is complete control, read-out: Ryegrass, Italian plant response rating): 20%
Cc1ccc(NC(=O)[C@H]2C(=O)N(C)C[C@@H]2c2cc(F)cc(F)c2)c(F)c1F [Compound 771] | 0 | 90 | 50 | 0 | 90 | 40 | 50 | 90 | 0 | 90 | pest or weed control at 500 g/ha (Kochia (Kochia scoparia); [18]): 80%
CSc1ccccc1NC(=O)[C@H]1C(=O)N(C)CC[C@@H]1c1cccc(OC(F)(F)F)c1 [Compound 809] | 0 | 20 | 0 | 0 | 90 | 0 |  |  |  |  | pest or weed control at 31 g/ha ([1]; Preemergence, 31 g ai/ha, 0 to 100 scale (0 no effect, 100 complete control), read-out: Plant response rating, Ragweed): 0%; pest or weed control at 31 g/ha ([2]; Preemergence, 31 g ai/ha, 0 to 100 scale (0 no effect, 100 complete control), read-out: Plant response rating, Foxtail, Giant): 0%; pest or weed control at 31 g/ha (Kochia (Kochia scoparia); Preemergence, 31 g ai/ha, 0 to 100 scale (0 no effect, 100 complete control), read-out: Plant response rating, Kochia): 0%; pest or weed control at 31 g/ha ([3]; Preemergence, 31 g ai/ha, 0 to 100 scale (0 no effect, 100 complete control), read-out: Plant response rating, Pigweed): 0%; pest or weed control at 31 g/ha ([4]; Preemergence, 31 g ai/ha, 0 to 100 scale (0 no effect, 100 complete control), read-out: Plant response rating, Barnyardgrass): 90%; pest or weed control at 31 g/ha ([5]; Preemergence, 31 g ai/ha, 0 to 100 scale (0 no effect, 100 complete control), read-out: Plant response rating, Ryegrass, Italian): 0%
CN1C[C@H](c2cccc(C(C)(F)F)c2)[C@@H](C(=O)Nc2ccc(F)cc2F)C1=O [Compound 1319] |  |  |  |  |  |  |  |  |  |  | pest or weed control at 500 g/ha [1, 12]: 20%; pest or weed control at 125 g/ha ([1]; Preemergence, 0 to 100 scale (0 no effect, 100 complete control), read-out: Plant response rating, Ragweed): 0%; pest or weed control at 500 g/ha [2, 13]: 90%; pest or weed control at 125 g/ha ([2]; Preemergence, 0 to 100 scale (0 no effect, 100 complete control), read-out: Plant response rating, Foxtail, Giant): 90%; pest or weed control at 500 g/ha (Kochia (Kochia scoparia); [14]): 80%; pest or weed control at 125 g/ha (Kochia (Kochia scoparia); Preemergence, 0 to 100 scale (0 no effect, 100 complete control), read-out: Plant response rating, Kochia): 80%; pest or weed control at 500 g/ha [3, 15]: 60%; pest or weed control at 125 g/ha ([3]; Preemergence, 0 to 100 scale (0 no effect, 100 complete control), read-out: Plant response rating, Pigweed): 0%; pest or weed control at 500 g/ha ([4]; preemergence, 0 to 100 scale where 0 is no effect and 100 is complete control, read-out: Barnyardgrass plant response rating): 90%; pest or weed control at 125 g/ha ([4]; Preemergence, 0 to 100 scale (0 no effect, 100 complete control), read-out: Plant response rating, Barnyardgrass): 90%; pest or weed control at 125 g/ha ([5]; Preemergence, 0 to 100 scale (0 no effect, 100 complete control), read-out: Plant response rating, Ryegrass, Italian): 30%
COc1cc([C@H]2CN(C)C(=O)[C@@H]2C(=O)Nc2ccccc2SC)ccc1C(F)(F)F [Compound 769] | 30 | 90 | 30 | 30 | 70 | 0 | 70 | 100 | 80 | 100 | pest or weed control at 500 g/ha (Kochia (Kochia scoparia); [18]): 70%
O=C1NC[C@H](c2csc3ccccc23)[C@H]1C(=O)Nc1cccc(F)c1F [Compound 751] | 20 | 80 | 20 | 0 | 90 | 0 | 40 | 90 | 0 | 90 | pest or weed control at 500 g/ha ([5]; preemergence, 0 to 100 scale, 0 = no effect, 100 = complete control, read-out: Plant response rating, Ryegrass, Italian): 20%
